Laboratory results taken from patent US4415566A, “Cephalosporin derivatives” (Boehringer Ingelheim GmbH, priority 1979, dated 1983).
Values after ≈ are worked out from the molar mass of the structure shown. Where two headings read alike, the source gives them in different places.

Key:
E. Coli ATCC 9637 = test: Serial dilution test in the microtiter system (MIC), E. Coli ATCC 9637; assay type: cell-based; conditions: Escherichia coli, ATCC9637
[1] = tested on: Escherichia coli ATCC 11 775; test: Serial dilution test in the microtiter system (MIC), E. Coli ATCC 11775; assay type: cell-based
Experimental: (§1) These tests were performed according to the method of the serial dilution test in the microtiter system. The effect of the substances on bacteriostasis was examined in a fluid medium. […] A nutrient medium of the following composition was used. 10 gm of peptone, 8 gm of meat extract-oxoid, 3 gm of sodium chloride, 2 gm of sec. sodium phosphate were diluted with distilled water to […] (pH 7.2-7.4). Only in the test against streptococci 1% of glucose was added. The age of the primary cultures was about 20 hours. The standardization of the pathogen suspension was effected by using a photometer according to "Eppendorf" (test tube dismeter 14 mm, filter 546 nm) with the aid of the turbidity of a comparison suspension consisting of barium sulfate, this suspension being prepared by addition of 3.0 ml of 1% barium chloride solution to 97 ml of 1% sulfuric acid. After the standardization, streptococcus aronson were further diluted to a concentration of 1:15 and the other microorganisms to a concentration of 1:1500 by means of a sodium chloride solution.
(§2) 16 mg of the test substance were put into a 10 ml-measuring flask and filled up to the mark with the solvent. The further dilution series was standardized with distilled water or the respective solvent.
(§3) The cavities of the microtiter plates were filled with 0.2 ml of nutrient medium. Then, 0.01 ml of the corresponding test substance dilution was added and inoculated with 0.01 ml of the standardized suspension. The bacteria were incubated at 37° C. for 18-20 hours. Control tests merely using the solvent were carried out simultaneously.
(§4) The measurement was carried out macroscopically to determine the minimal inhibitory (threshold) concentration, i.e. the lower still bacteriostatically effective concentration.
(§5) Staphylococcus aureus SG 511, Escherichia coli ATCC 11 775, Pseudomonas aeruginosa Hamburgensis and Pseudomonas aeruginosa Walter, Serratia marcescens ATCC 13880, Klebsiella pneumoniae ATCC 10 031 and 272, Proteus mirabilis Hamburgensis, Proteus rettgeri, Enterbacter cloaceae ATCC 13 047 and E. Coli R+TEM (β-lactamase carrier).

[2] = tested on: Pseudomonas aeruginosa Walter; test: Serial dilution test in the microtiter system (MIC), Pseud. aerug. Walter; assay type: cell-based
Experimental: as §1, §2, §3, §4, §5

[3] = tested on: Serratia marcescens ATCC 13880; test: Serial dilution test in the microtiter system (MIC), Serrat. marcesc. ATCC 13880; assay type: cell-based
Experimental: as §1, §2, §3, §4, §5

[4] = tested on: Klebsiella pneumoniae ATCC 10 031; test: Serial dilution test in the microtiter system (MIC), Klebs. pneum. ATCC 10031; assay type: cell-based
Experimental: as §1, §2, §3, §4, §5

[5] = tested on: Klebsiella pneumoniae 272; test: Serial dilution test in the microtiter system (MIC), Klebs. pneum. 272; assay type: cell-based
Experimental: as §1, §2, §3, §4, §5

[6] = tested on: Proteus mirabilis Hamburgensis; test: Serial dilution test in the microtiter system (MIC), Prot. mirabilis; assay type: cell-based
Experimental: as §1, §2, §3, §4, §5

Proteus rettgeri = test: Serial dilution test in the microtiter system (MIC), Prot. rettgeri; assay type: cell-based; conditions: Providencia rettgeri
Experimental: as §1, §2, §3, §4, §5

[7] = tested on: Enterbacter cloaceae ATCC 13 047; test: Serial dilution test in the microtiter system (MIC), Eb. cloaceae ATCC 13047; assay type: cell-based
Experimental: as §1, §2, §3, §4, §5

E. coli ATCC 11775 = test: In vivo activity in mice, E. coli infection; design: species or system Female NMRI mice; conditions: Escherichia coli, ATCC11775, iPSC, sc, 168 h; E. coli infection i.p.; s.c. administration; per dose; observation 7 days; read-out: ED50 (dose at which 50% of the animals survived)
Experimental: (§6) A number of compounds of this invention were tested in vivo in mice against experimental infections. Bacteria E. coli ATCC 11775 and Psuedomonas aeruginosa Walter were used as pathogens. An intraperitoneal infection with 0.2 ml of a 5% suspension of the bacteria was induced. This corresponds to about 2×10^6 E. Coli germs and 8×10^5 pseudomonas germs/mouse. […] The groups with E. coli infection were treated with the test compound three times on the first day (1, 4, and 7 hours post infectionem) and for two days thereafter twice a day. The groups with the pseudomonas infection were treated with the test compound 6 times on the first day (1, 3, 6, 9, 12 and 15 hours post infectionem) and for two days thereafter twice a day. The observation time was in both cases 7 days. The results of these tests with representatives of the penicillins and cephalosporins according to the invention are shown in the following table: […]

[8] = tested on: Psuedomonas aeruginosa Walter; test: In vivo activity in mice, Pseudomonas infection; design: species or system Female NMRI mice; conditions: Mus musculus, iPSC, sc, 168 h; Pseudomonas infection i.p.; s.c. administration; per dose; observation 7 days; read-out: ED50 (dose at which 50% of the animals survived)
Experimental: as §6

[9] = tested on: Pseudomonas aeruginosa Hamburgensis; test: Serial dilution test in the microtiter system (MIC), Pseud. aerug. Hbg.; assay type: cell-based
Experimental: as §1, §2, §3, §4, §5

[10] = Table III, E. Coli ATCC 11775, 37° C., 18-20 hours, read-out: MIC
[11] = Table III, Pseud. aerug. Walter, 37° C., 18-20 hours, read-out: MIC
[12] = ATCC13880, Table III, Serrat. marcesc. ATCC 13880, 37° C., 18-20 hours, read-out: MIC
[13] = Table III, Prot. mirabilis, 37° C., 18-20 hours, read-out: MIC
[14] = Table III, Prot. rettgeri, 37° C., 18-20 hours, read-out: MIC
[15] = Table III, E. Coli ATCC 9637, 37° C., 18-20 hours, read-out: MIC
[16] = Table III, Pseud. aerug. Hbg., 37° C., 18-20 hours, read-out: MIC
[17] = Table III, Eb. cloaceae ATCC 13047, 37° C., 18-20 hours, read-out: MIC
[18] = Table III, Klebs. pneum. 272, 37° C., 18-20 hours, read-out: MIC

Row | Structure (SMILES) | MIC (E. Coli ATCC 9637) [mg/L] | MIC [1, 10] [mg/L] | MIC [2, 11] [mg/L] | MIC [3, 12] [mg/L] | MIC [4] [mg/L] | MIC [5]; 272 [mg/L] | MIC [6, 13] [mg/L] | MIC (Proteus rettgeri; [14]) [mg/L] | MIC [7] [mg/L] | ED50 (E. coli ATCC 11775) [mg/kg] | ED50 [8] [mg/kg] | MIC [9] [mg/L] | MIC [2] [mg/L] | MIC (E. Coli ATCC 9637; [15]) [mg/L] | MIC [9, 16] [mg/L] | MIC [1] [mg/L] | MIC [6] [mg/L] | further results
1 | CC1(C)S[C@@H]2[C@H](NC(=O)[C@H](NC(=O)Nc3cnc(NCc4cccnc4)nc3O)c3ccc(O)cc3)C(=O)N2[C@H]1C(=O)O [A, D-α-{3-[4-Hydroxy-2-(3'-pyridylmethylamino)-5-pyrimidinyl]-ureido}-p-hydroxy-benzyl-penicillin sodium] | 0.5 | 0.5 | 1 | 0.5 | 8 | 8 | 0.12 | 1 | 4 | 0.7 | 1.2 |  |  |  |  |  |  | 
2 | Cn1nnnc1SCC1=C(C(=O)O)N2C(=O)[C@@H](NC(=O)C(NC(=O)Nc3cnc(NCc4ccco4)nc3O)c3cccs3)[C@H]2SC1 (single isomer, unassigned) [M] |  |  |  |  |  | 0.5 (≈ 0.715 µM) |  |  |  | 0.8 |  | 8 (≈ 11.4 µM) | 4 (≈ 5.72 µM) |  |  |  |  | MIC ([3]; ATCC13880, Table IV, Serr. marcesc. ATCC 13880, 37° C., 18-20 hours, read-out: MIC): 0.5 mg/L (≈ 0.715 µM); MIC ([6]; Table IV, Prot. mir. Hbg., 37° C., 18-20 hours, read-out: MIC): 0.12 mg/L (≈ 0.171 µM); MIC (Proteus rettgeri; Table IV, Prot. rettg., 37° C., 18-20 hours, read-out: MIC): 0.5 mg/L (≈ 0.715 µM)
3 | CC1(C)S[C@@H]2[C@H](NC(=O)[C@H](NC(=O)Nc3cnc(Nc4ccc(O)nc4)nc3O)c3ccc(O)cc3)C(=O)N2[C@H]1C(=O)O [G, D-α-{3-[4-Hydroxy-2-(6'-hydroxy-3'-pyridylamino)-5-pyrimidinyl]-ureido}-p-hydroxy-benzyl-penicillin sodium] |  | 0.2 | 0.5 | 0.1 | 4 | 4 | 0.01 | 0.5 | 4 |  |  |  |  | 0.2 | 0.5 |  |  | 
4 | Cc1ncc(CNc2ncc(NC(=O)N[C@@H](C(=O)N[C@@H]3C(=O)N4[C@@H]3SC(C)(C)[C@@H]4C(=O)O)c3ccc(O)cc3)c(O)n2)cn1 [F, D-α-{3-[4-Hydroxy-2-(2'-methyl-5'-pyrimidinylmethylamino)-5-pyrimidinyl]-ureido}-p-hydroxy-benzyl-penicillin sodium] | 0.5 | 0.5 | 1 | 0.5 | 8 | 8 | 0.06 | 0.5 | 4 |  |  |  |  |  |  |  |  | 
5 | CC1(C)S[C@@H]2[C@H](NC(=O)[C@H](NC(=O)Nc3cnc(Nc4ccc(S(C)(=O)=O)nc4)nc3O)c3ccc(O)cc3)C(=O)N2[C@H]1C(=O)O [Compound E, D-α-{3-[4-Hydroxy-2-(6'-methylsulfonyl-3'-pyridylamino)-5-pyrimidinyl]-ureido}-p-hydroxy-benzyl-penicillin sodium] |  | 0.2 | 1 | 0.2 | 2 | 2 | 0.06 | 0.25 | 2 |  |  |  |  | 0.2 | 1 |  |  | 
6 | CC1(C)S[C@@H]2[C@H](NC(=O)[C@H](NC(=O)Nc3cnc(Nc4ccc(C(N)=O)s4)nc3O)c3ccc(O)cc3)C(=O)N2[C@H]1C(=O)O [B, D-α-{3-[2-(5'-Aminocarbonyl-2'-thienylamino)-4-hydroxy-5-pyrimidinyl]-ureido}-p-hydroxy-benzyl-penicillin sodium] |  |  | 1 | 0.2 | 2 | 2 | 0.06 | 0.5 | 2 | 1.3 | 4.8 |  |  | 0.5 | 1 | 0.25 |  | 
7 | CC1(C)S[C@@H]2[C@H](NC(=O)[C@H](NC(=O)Nc3cnc(NCc4cccs4)nc3O)c3ccc(O)cc3)C(=O)N2[C@H]1C(=O)O [C, D-α-{3-[4-Hydroxy-2-(2'-thienylmethylamino)-5-pyrimidinyl]-ureido}-p-hydroxy-benzyl-penicillin sodium] | 0.5 | 0.5 |  | 0.5 | 2 | 2 |  |  |  | 0.8 | 2.5 | 2 | 1 |  |  |  | 0.25 | MIC (Proteus rettgeri): 0.12 mg/L; MIC [7, 17]: 0.5 mg/L
8 | CC1(C)S[C@@H]2[C@H](NC(=O)[C@H](NC(=O)Nc3cnc(NCc4ccco4)nc3O)c3ccc(O)cc3)C(=O)N2[C@H]1C(=O)O [D, D-α-{3-[4-Hydroxy-2-(2'-furylmethylamino)-5-pyrimidinyl]-ureido}-p-hydroxy-benzyl-penicillin sodium] |  |  |  | 0.5 | 4 |  |  | 0.5 | 4 | 0.8 | 1.5 |  | 2 | 0.5 | 1 | 1 | 0.25 | MIC [5, 18]: 8 mg/L
9 | CC1(C)S[C@@H]2[C@H](NC(=O)[C@H](NC(=O)N3CCNC3=O)c3ccccc3)C(=O)N2[C@H]1C(=O)O [Azlocillin, reference compound] |  |  |  |  |  |  |  |  |  | ~35 | ~110 | 8 (≈ 17.3 µM) | 8 (≈ 17.3 µM) | 16 (≈ 34.7 µM) |  | 8 (≈ 17.3 µM) | 2 (≈ 4.33 µM) | MIC ([3]; ATCC13880): 4 mg/L (≈ 8.67 µM); MIC ([4]; Table III, Klebs. pneum. ATCC 10031, 37° C., 18-20 hours, read-out: MIC): 32 mg/L (≈ 69.3 µM); MIC [5, 18]: 32 mg/L (≈ 69.3 µM); MIC (Proteus rettgeri): 8 mg/L (≈ 17.3 µM); MIC [7, 17]: 32 mg/L (≈ 69.3 µM)
